The values below come from ChEMBL document CHEMBL1201862, “PubChem BioAssay data set” (2004).

SMILES strings stand for the structures.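 Each compound was tested at five concentrations against cells in 96-well plates for 48 hours. GI50 is the concentration that inhibits growth by half.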 Active and inactive are the calls of the source. Cut-off read from the data, not from the text of the source: active = GI50 up to about 1.1 µM and inactive = higher. A value given as a limit tells only on which side of the number the result lay.

Among the test systems are SK-OV-3; EKVX; OVCAR-4; NCI-H522; SW-620; SR; HOP-62; UACC-257; SNB-19; DMS-114; NCI-H23; CAKI-1; DMS-273; Malme-3M; RXF 393; OVCAR-5; SN12C; HT-29; HOP-18; UACC-62.
Common to all, as to test: DTP human tumour cell line panel, 48 h

As for `CCc1cccc(C(C)C)c1NC(=O)CC1Sc2ccccc2NC1=O` (stereo not drawn), the GI50 in the assay on SK-OV-3 is > 100 µM (inactive); with EKVX it was 80.5 µM (inactive); in the assay with OVCAR-4 it was 76.2 µM (inactive); in the assay with NCI-H522, 33.4 µM (inactive); in the assay on SW-620, 13 µM (inactive); in the assay with SR it was 30.1 µM (inactive). Also, the GI50 in the assay with HOP-62 is > 100 µM (inactive); in the assay on UACC-257 it was 43.8 µM (inactive); in the assay with SNB-19 it was 23.2 µM (inactive); in the assay with DMS-114, 44.1 µM (inactive); with NCI-H23, 52.8 µM (inactive); in the assay on CAKI-1 it was 0.241 µM (active). Also, the GI50 in the assay on DMS-273 was 34 µM (inactive); in the assay on Malme-3M, 83.6 µM (inactive); with RXF 393, 41 µM (inactive); in the assay on OVCAR-5, > 100 µM (inactive); with SN12C, > 100 µM (inactive); in the assay with HT-29, 55.6 µM (inactive). Besides, the GI50 with HOP-18 was > 100 µM (inactive).
On to `N#CC(/C(=N/NC(=O)C(=O)NN)C(=O)NC12CC3CC(CC(C3)C1)C2)c1ccccc1` (stereo not drawn), for which the GI50 with SK-OV-3, in the assay with EKVX, with OVCAR-4, in the assay on UACC-62, in the assay on NCI-H522 and with SW-620 was > 100 µM (inactive) each time. The GI50 with SR, in the assay on HOP-62, in the assay on UACC-257, in the assay on SNB-19, in the assay on DMS-114 and in the assay with NCI-H23 was > 100 µM (inactive) throughout. For the same molecule, the GI50 in the assay on CAKI-1, in the assay on DMS-273, in the assay on Malme-3M, with RXF 393, with OVCAR-5 and in the assay on SN12C was > 100 µM (inactive) throughout. The GI50 in the assay with HT-29 and in the assay with HOP-18 was > 100 µM (inactive) throughout.
For the molecule `COc1ccc(C2SCC(=O)N2NC(=O)c2ccncc2)cc1F` (stereo not drawn), the GI50 with SK-OV-3, with OVCAR-4, in the assay on NCI-H522, in the assay with SW-620, in the assay on SR and with HOP-62 was > 100 µM (inactive) throughout. In addition, the GI50 in the assay on UACC-257, with SNB-19, in the assay with DMS-114, in the assay with NCI-H23, in the assay on CAKI-1 and in the assay with DMS-273 was > 100 µM (inactive) each time. Further, the GI50 was > 100 µM (inactive) with Malme-3M; > 100 µM (inactive) with RXF 393; > 100 µM (inactive) in the assay on OVCAR-5; > 100 µM (inactive) in the assay with SN12C; > 100 µM (inactive) with HT-29; 7.29 µM (inactive) with HOP-18.
Turning to `CCc1cccc(C(C)C)c1NC(=O)C(=O)C(CC(=O)Nc1ccc(Cl)c(Cl)c1)C(=O)OC` (stereo not drawn), the GI50 in the assay with SK-OV-3 was > 100 µM (inactive); in the assay on EKVX it was > 100 µM (inactive); in the assay with OVCAR-4 it was > 100 µM (inactive); with UACC-62, 2.18 µM (inactive); with NCI-H522 it was 78.9 µM (inactive); in the assay with SW-620, 10 µM (inactive). For the same molecule, the GI50 was > 100 µM (inactive) in the assay on SR; 35.2 µM (inactive) in the assay on HOP-62; > 100 µM (inactive) in the assay with UACC-257; > 100 µM (inactive) in the assay on SNB-19; > 100 µM (inactive) in the assay on DMS-114; > 100 µM (inactive) in the assay on NCI-H23. The GI50 in the assay on CAKI-1 was > 100 µM (inactive); in the assay with DMS-273 it was 49.4 µM (inactive); in the assay with Malme-3M, > 100 µM (inactive); in the assay on RXF 393 it was > 100 µM (inactive); in the assay on OVCAR-5, > 100 µM (inactive); in the assay on SN12C, > 100 µM (inactive). For the same molecule, the GI50 in the assay with HT-29 is > 100 µM (inactive); in the assay on HOP-18, 99.5 µM (inactive).
For `COc1ccc(/C=c2\sc3nnc(CCC(=O)Nc4cccc(C(F)(F)F)c4)n3c2=O)cc1`, the GI50 with SK-OV-3 is > 100 µM (inactive); in the assay on EKVX, > 100 µM (inactive); in the assay on OVCAR-4, > 100 µM (inactive); in the assay on UACC-62, > 62.8 µM (inactive); in the assay with SW-620 it was > 100 µM (inactive); in the assay with SR, 42.6 µM (inactive). Besides, the GI50 with HOP-62 is > 100 µM (inactive); in the assay with UACC-257, > 100 µM (inactive); with SNB-19 it was > 100 µM (inactive); in the assay with DMS-114, > 100 µM (inactive); in the assay with NCI-H23, > 100 µM (inactive); in the assay on CAKI-1 it was > 79.8 µM (inactive). Also, the GI50 with DMS-273 was > 100 µM (inactive); in the assay with Malme-3M, > 100 µM (inactive); in the assay on RXF 393 it was 41.5 µM (inactive); in the assay on OVCAR-5, > 100 µM (inactive); in the assay with SN12C, > 100 µM (inactive); in the assay on HT-29, > 100 µM (inactive). Further, in the assay with HOP-18, the GI50 was 50.4 µM (inactive).
As to `CC(O)C(NC(=O)C(CS)NC(=O)C(CO)NC(=O)C(CCCCN)NC(=O)C(Cc1c[nH]c2ccccc12)NC(=O)C(Cc1ccc(O)cc1)NC(=O)C(CS)NC(=O)C(N)Cc1ccccc1)C(N)=O` (stereo not drawn), the GI50 with SK-OV-3 is > 25 µM (inactive); with EKVX, > 25 µM (inactive); in the assay on OVCAR-4, 8.53 µM (inactive); in the assay with UACC-62 it was > 25 µM (inactive); in the assay with NCI-H522, > 25 µM (inactive); in the assay on SW-620 it was > 25 µM (inactive). The GI50 was > 25 µM (inactive) in the assay with SR; > 25 µM (inactive) with HOP-62; > 25 µM (inactive) in the assay on UACC-257; 26.2 µM (inactive) in the assay on SNB-19; 35.8 µM (inactive) in the assay on DMS-114; > 25 µM (inactive) in the assay with NCI-H23. Moreover, the GI50 in the assay on CAKI-1 was > 25 µM (inactive); in the assay on DMS-273 it was 20.9 µM (inactive); with Malme-3M, > 25 µM (inactive); in the assay on RXF 393 it was > 25 µM (inactive); in the assay with OVCAR-5 it was > 25 µM (inactive); with SN12C, > 25 µM (inactive). In addition, the GI50 with HT-29 was > 25 µM (inactive); in the assay with HOP-18, 22.6 µM (inactive).
Turning to `COc1cc(-c2cc(=O)c3c(O)c(OC)c(OC)c(OC)c3o2)ccc1O`, the GI50 was 11.2 µM (inactive) in the assay with SK-OV-3; > 100 µM (inactive) in the assay with EKVX; 14.8 µM (inactive) in the assay on UACC-62; 17.1 µM (inactive) in the assay on NCI-H522; 31.7 µM (inactive) in the assay with SW-620; 23 µM (inactive) in the assay with SR. Besides, the GI50 was 21.6 µM (inactive) in the assay on HOP-62; 20.7 µM (inactive) in the assay with UACC-257; 34 µM (inactive) in the assay with SNB-19; 23.9 µM (inactive) in the assay on DMS-114; 27.7 µM (inactive) with NCI-H23; 5.08 µM (inactive) in the assay on DMS-273. Moreover, the GI50 was 28.7 µM (inactive) in the assay on Malme-3M; 13 µM (inactive) with RXF 393; > 100 µM (inactive) with OVCAR-5; 26.7 µM (inactive) in the assay on SN12C; 32.4 µM (inactive) with HOP-18.
